“Also recorded” adds a separate entry of the source.
Columns and labels:
pilocarpine model of TLE = experiment: SRS onset monitoring after QIH induction during the latent period, pilocarpine model of TLE; assay type: in vivo, mice
Method: (§1) Two to three weeks after surgery, mice were first habituated to intraperitoneal (i.p.) injection of saline four times (once per day). On the day of QIH induction, mice were allowed to be habituated to the experimental room (15C) for 1 hour. A dose of 1 mg/kg of clozapine N-oxide (CNO) was i.p. injected to induce QIH in the same experimental room under darkness and low ambient temperatures of about 18-19 degrees celsius. Mice were allowed to stay in the room for 48 hours, and then returned to the housing colony once the QIH state had wore off.
(§2) On the day of seizure injection, mice were first i.p. injected with 0.07 mL of scopolamine solution (0.5 mg/mL) to prevent adverse peripheral side effects. Thirty minutes later, 280 mg/kg pilocarpine solution was i.p. injected to produce acute seizure. After the mice reach stage 3, 4, or 5 on the Racine scale of behavioral seizures (modified version below), the development of status epilepticus (SE) is confirmed as a continuous state of seizures characterised by a behavioral expression such as a prominent head tic, rigidity of body and tail, and immobility. One to 3 hours after the initial onset of SE, 0.04 mL of Midazolam (5 mg/mL) was i.p. injected to attenuate the seizures.
Animals are observed by trained personnel on a daily basis, starting with the first day after QIH exit. The monitoring process is performed while animals are in their homecages, in the experimental room. Observation is conducted for one hour per mouse per day using the scale above (table 1) to identify the severity of the behavioral seizures as they occur. For each mouse, the day on which the first seizure is observed, as well as the perceived severity, are recorded.

contextual fear memory = experiment: Contextual fear conditioning after QIH; assay type: in vivo, mice; conditions: after 48 hours of QIH and 72 hours recovery
Method: as §1
Mice were first handled by an experimenter for at least 5 days to reduce their anxiety. During conditioning, the animals were first allowed to explore the context A (30.5L×24.1W×21H cm, metal grid floor, ethanol odor, white light, white noise) and then received 5 foot shocks (0.75 mA for 2 seconds with 30 seconds inter-shock-intervals). Next day, the same animals returned to the shocked context A and a novel neutral context B (30.5L×24.1W×21H cm, plastic flat floor, acetic acid odor, NIR light under darkness, triangle roof). After QIH induction and recovery, the mice were retested both in contexts A and B.

[1] = system: Q-neurons in the anteroventral periventricular nucleus (AVPe); experiment: QIH induction by CNO with body temperature and extracellular tetrode recording; assay type: in vivo, mice
Method: All animals were single-housed prior to surgery. During surgery, mice were anesthetized with MMB (a cocktail of medetomidine, midazolam, and butorphanol) and 500 nL of AAV-hSyn-DIO-hM3D(Gq)-mCherry vector was infused through a small craniotomy above AVPe (ML ±0.3; AP +0.38; DV −5.0) at a rate of 50 nL per minute with a micropump syringe (World Precision Instrument). After infusion, the 35 G needle stayed at the infusion site for at least 15 minutes to allow diffusion of the vector. After surgery, animals were carefully monitored to full recovery. For LFP and single/multi-unit recording, we implanted a microdrive consisting of 9 independently adjustable tetrodes (14 um diameter, nichrome wire, gold plated to 200-300 kΩ). In the 2-3 weeks after surgery the depth of the tetrodes were slowly and manually adjusted until stable recording of LFP signals or separatable spike clusters was observed. All adjustments were conducted in a highly familiar small plastic bucket located in the recording room while the animals moved and behaved freely.
as §1
All data were acquired using 32-channel Digital Lynx 4SX acquisition system (Neuralynx). The local field potential (LFP) was filtered at 2-9000 Hz. Spike waveforms were filtered between 0.6-6 kHz and those above a peak threshold of […] were time-stamped and digitized at 32,556 Hz. Spikes were manually sorted using SpikeSort3D software (Neuralynx). In short, waveform amplitudes of all spikes recorded from three channels were projected to three dimensional space and putative units were clustered. This procedure was repeated for all combinations of channels and also for energy of spikes. […] A low-pass filter with a cut-off frequency equal to half the target sampling frequency was applied to the LFP prior to downsampling to prevent signal distortion.

[2] = over four thousand adult patients (NPL17); cited from earlier work
[3] = Seizure induction with pilocarpine; assay type: in vivo, mice
Method: as §2

[4] = applied on the epileptogenic zone; even after decades of monitoring (NPL22); cited from earlier work

With `C[N+]1([O-])CCN(C2=Nc3cc(Cl)ccc3Nc3ccccc32)CC1` [CNO, clozapine-N-oxide] the “SRS onset (duration of the latent phase)” value (pilocarpine model of TLE; QIH induced 24 h after midazolam, 48 h QIH, vs control animals in QIH chamber without induction, FIG. 2B) was “drastic delay in the SRS onset; also recorded: significantly delayed”, the “severity of SRS (Racine scale)” value (pilocarpine model of TLE; QIH vs no QIH during the latent phase, FIG. 2C) was “no difference in the severity in the SRS” and the “time of SRS after induction of the hibernation-like state” value (pilocarpine model of TLE; as opposed to 1-2 weeks in the rodent model) was “several months”. For the same compound, the “freezing behavior in Post-Test A” value (contextual fear memory; vs control animals without induction, FIG. 3B) was “comparable level of freezing behavior”, the “freezing in Post-Test B (neutral context)” value (contextual fear memory; all groups) was “negligible degree of freezing” and the “body temperature during QIH” value ([1]; after CNO injection (1 mg/kg i.p.), Qrfp-iCre mice with AAV-hSyn-DIO-hM3D(Gq)-mCherry in AVPe, FIG. 1A) was “reduction in their body temperature”. The “spike activity of individual pyramidal cells in the dorsal CA1” value ([1]; after QIH induction, FIG. 1C) was “rapid reduction in their spike activity”, the “power spectral density of LFP in the dorsal CA1” value ([1]; during QIH, FIG. 1B) was “substantial reduction in broad frequency ranges” and the “time mice stay under QIH after injection” value ([1]; intraperitoneal CNO, spontaneous awakening and rewarming afterwards) was 48 h. The “multi-unit activity recorded from the hypothalamus” value ([1]; upon QIH induction, FIG. 1D) was “reduced upon induction of QIH”.
For `CC[C@@H](C(N)=O)N1CCCC1=O` [Levetiracetam], the “rate of psychiatric and behavioral side effects among the medications” value [2] is listed as “highest rates of side effects”.
In the case of `CC[C@@H]1C(=O)OC[C@@H]1Cc1cncn1C` [Pilocarpine, pilocarpine], the “time to seizures after injection” value ([3]; 280 mg/kg i.p.) is reported as “thirty” and the “duration of prolonged seizure (status epilepticus)” value ([3]; before termination with an anticonvulsant drug) is reported as “about two”.
In the case of `NS(=O)(=O)Cc1noc2ccccc12` [Zonisamide], the “rate of psychiatric and behavioral side effects among the medications” value [2] is given as “highest rates of side effects”.
For `CCCl` [ethyl chloride], the seizure outcome [4] is given as “complete remission from seizures”.
